In patent US6511848B2, “Process for producing and multiplying lymphocytes” (Winfried Albert, priority 1996, dated 2003):

How the values were obtained:
[1] = tested on: killer T cells; experiment: Multiplication of killer T cells in serum-free DF medium; format: cell-based, human
Experimental: Mononuclear cells from peripheral blood (PBMNC) of human donors are isolated by means of gradient centrifugation (lymphocyte separation medium, BM), washed twice with phosphate-buffered saline solution and incubated at a density of 5-10×10^6 cells/ml DF medium according to Thiele and Lipsky (J. Immunol. 136 (1986) 1038-1048) with 250 μM leucyl-leucine-methyl ester (BM) for 20 minutes at room temperature. After washing with DF medium the cells are cultured at 37° C. in 8% CO2 atmosphere at a density of 1-2×10^6 per ml DF medium together with irradiated (2000 rad) HB654 cells or HB617 cells (stimulator cells; 2-5×10^5 per ml). On day 5-6 of the co-culture half to two thirds of the culture medium is renewed and irradiated stimulator cells (2-5×10^5 per ml) are added again. From day 8-10 after starting the co-culture, when all stimulator cells have been destroyed by the cytotoxic activity of the killer T cells, the killer T cells are used for the following examples. […]

[2] = tested on: Mononuclear cells from peripheral blood (PBMNC); experiment: Multiplication of NK and T lymphocytes from mononuclear cells of human blood in serum-free medium; format: cell-based; conditions: serum-free DF medium, single cytokine
Source text: Mononuclear cells from peripheral blood (PBMNC) of a human donor are isolated by means of gradient centrifugation (lymphocyte separation medium, Boehringer Mannheim GmbH, Germany (BM)), washed twice with phosphate-buffered saline solution and taken up in DF medium at a density of 1×10^6 cells/ml and cultured in three separate preparations which are denoted A, B and C. […] Half of the culture medium (+cytokine(s)) is renewed every second day and the cell count is adjusted to ca. 1×10^6 cells/ml during the first 7 days and subsequently to ca. […].

## CC[C@@H]1/C=C(\C)C[C@H](C)C[C@H](OC)[C@H]2O[C@@](O)(C(=O)C(=O)N3CCCC[C@H]3C(=O)O[C@H](/C(C)=C/[C@@H]3CC[C@@H](O)[C@H](OC)C3)[C@H](C)[C@@H](O)CC1=O)[C@H](C)C[C@@H]2OC [Ascomycin, reference compound]
[1]; additive alone, without growth factor
  multiplication of killer T cells (in words): no multiplication

## IL-15: Human recombinant IL-15 (R & D Systems), 15 ng/ml, lymphocyte growth factor
[1]; growth factor alone
  doubling cycles after which proliferation stagnates: 3 doubling cycles

## TGFβ1: rh TGFβ1 (BM), 4 ng/ml
[2]
  growth behaviour of the cells (in words): do not multiply
